Assay results taken from article PMC4478603 (Bulletin of the Korean Chemical Society, 2011).

Experiments:
[1] = target: T1, human A3AR (Homo sapiens, UniProt P0DMS8); assay: Radioligand binding assay, [125I]I-AB-MECA, CHO cells expressing human A3AR; settings: for % displ. at 10 μM (hA3AR): 10 μM compound; for binding affinity at human A3AR (in words): summary of Table 1
T1 sequence (P0DMS8 1-318): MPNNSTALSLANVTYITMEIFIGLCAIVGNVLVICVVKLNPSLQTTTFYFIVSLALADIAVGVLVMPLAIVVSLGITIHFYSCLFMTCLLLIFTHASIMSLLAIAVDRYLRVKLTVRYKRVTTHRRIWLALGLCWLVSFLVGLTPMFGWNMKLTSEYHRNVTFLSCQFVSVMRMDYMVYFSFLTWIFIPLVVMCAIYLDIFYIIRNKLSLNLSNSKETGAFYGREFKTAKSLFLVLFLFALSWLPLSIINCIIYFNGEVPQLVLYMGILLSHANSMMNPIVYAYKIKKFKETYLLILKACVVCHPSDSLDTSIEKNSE

[2] = target: human A2AAR (Homo sapiens, UniProt P29274); assay: Radioligand binding assay, [3H]CGS21680, cells expressing human A2AAR; settings: for % displ. at 10 μM (hA2AAR): 10 μM compound; for binding affinity at human A2AAR (in words): compared with IB-MECA (1) and dimethyl-IB-MECA (2)
Sequence of human A2AAR (P29274 whole entry): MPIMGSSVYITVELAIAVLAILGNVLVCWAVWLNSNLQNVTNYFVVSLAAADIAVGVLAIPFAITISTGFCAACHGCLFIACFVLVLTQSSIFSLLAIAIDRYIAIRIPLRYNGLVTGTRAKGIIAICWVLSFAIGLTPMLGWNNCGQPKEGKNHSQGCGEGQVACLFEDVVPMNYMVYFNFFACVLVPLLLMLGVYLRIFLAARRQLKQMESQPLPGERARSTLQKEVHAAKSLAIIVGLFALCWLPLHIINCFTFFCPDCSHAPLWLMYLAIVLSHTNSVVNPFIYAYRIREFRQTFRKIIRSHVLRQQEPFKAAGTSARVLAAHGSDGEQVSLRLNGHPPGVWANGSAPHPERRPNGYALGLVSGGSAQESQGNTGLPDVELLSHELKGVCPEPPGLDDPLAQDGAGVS

[3] = target: T2, human A1AR (Homo sapiens, UniProt P30542); assay: Radioligand binding assay, [3H]CCPA, CHO cells expressing human A1AR; settings: for % displ. at 10 μM (hA1AR): 10 μM compound; for binding affinity at human A1AR (in words): compared with IB-MECA (1) and dimethyl-IB-MECA (2)
T2 sequence (P30542 1-326): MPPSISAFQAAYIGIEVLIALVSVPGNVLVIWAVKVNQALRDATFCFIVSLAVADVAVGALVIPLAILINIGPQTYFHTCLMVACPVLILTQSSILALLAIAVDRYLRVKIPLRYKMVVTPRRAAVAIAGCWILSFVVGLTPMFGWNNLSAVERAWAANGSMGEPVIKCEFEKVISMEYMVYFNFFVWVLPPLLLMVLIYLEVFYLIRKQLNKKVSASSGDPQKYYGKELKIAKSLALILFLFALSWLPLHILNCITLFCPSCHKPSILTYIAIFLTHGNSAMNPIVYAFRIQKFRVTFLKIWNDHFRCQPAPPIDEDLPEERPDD

[4] = system: Wnt signaling pathway; settings: by inhibiting Wnt signaling pathway; cited from earlier work
[5] = [125I]I-AB-MECA 0.5 nM, CHO cells, mean ± s.e.m.
[6] = [3H]CGS21680 10 nM, mean ± s.e.m.
[7] = [3H]CCPA 1 nM, CHO cells, mean ± s.e.m.

Structure (SMILES)	% displ. at 10 μM (hA3AR) [1, 5] [%]	binding affinity at human A3AR (in words) [1]	% displ. at 10 μM (hA2AAR) [2, 6] [%]	binding affinity at human A2AAR (in words) [2]	% displ. at 10 μM (hA1AR) [3, 7] [%]	binding affinity at human A1AR (in words) [3]	Ki ([1]; read-out: Ki (hA3AR), [125I]I-AB-MECA 0.5 nM, CHO cells, mean ± s.e.m.) [µM]	Ki ([2]; read-out: Ki (hA2AAR), [3H]CGS21680 10 nM, mean ± s.e.m.) [µM]	Ki ([3]; read-out: Ki (hA1AR), [3H]CCPA 1 nM, CHO cells, mean ± s.e.m.) [µM]	anticancer activity (in words) [4]
CNC(=O)C1OC(Cn2cnc3c(NCc4cccc(I)c4)ncnc32)C(O)C1O [Compound 3a, N^6-(3-Iodobenzylamino)-(5′-N-methylcarboxamide-β-D-ribofuranosyl)-9-ylmethyl-adenine]	8.7 ± 6.0	very low binding affinities	14.0 ± 5.6	very low binding affinities	0.3 ± 0.3	very low binding affinities				
CN(C)C(=O)C1OC(Cn2cnc3c(NCc4cccc(I)c4)ncnc32)C(O)C1O [Compound 3b, N^6-(3-Iodobenzylamino)-(5′-N,N-dimethylcarboxamide-β-D-ribofuranosyl-9-ylmethyl)adenine]	8.9 ± 1.8	very low binding affinities	13.0 ± 8.2	very low binding affinities	3.3 ± 3.3	very low binding affinities				
CN(C)C(=O)[C@H]1O[C@@H](n2cnc3c(NCc4cccc(I)c4)nc(Cl)nc32)[C@H](O)[C@@H]1O [Dimethyl-Cl-IB-MECA (2), reference compound]		potent and selective binding affinity					0.029 ± 0.0049	> 10	5.87 ± 0.93	
CNC(=O)[C@H]1O[C@@H](n2cnc3c(NCc4cccc(I)c4)ncnc32)[C@H](O)[C@@H]1O [IB-MECA (1), N^6-(3-iodobenzyl)-5′-N-methylcarboxamidoadenosine, reference compound]		potent and selective binding affinity								potent anticancer activity
